The source of these data is the supplement of paper PMC10290057.

The subject of experiment [1] is HCT116. The experiment can be described thus: AC50 cell viability (CellTiter-Glo); higher = less potent. The settings on record: 48 h. (Cellular ATP, detected with luciferase, serves as a proxy for viable cell number.)
In experiment [2] the test system is HCT116. In words: efficacy (fitted maximal change in viability relative to DMSO control); higher = less cytotoxic (negative = loss of viability). The settings on record: 48 h.

Structures can show the parent of a compound that is named as a salt.
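For AC50 cell viability (CellTiter-Glo) in this document: HCT116 colorectal carcinoma cells screened at five concentrations per compound, luminescent viability scaled between DMSO wells and empty wells on each plate, curves fitted per compound.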
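For efficacy (fitted maximal change in viability relative to DMSO control) in this document: Luminescence-based viability readout, five doses per compound, normalized against on-plate DMSO and empty-well controls, followed by dose-response curve fitting for every drug.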

In the experiment on HCT116 [1], `CN[C@H]1CC[C@@H](c2ccc(Cl)c(Cl)c2)c2ccccc21` [Sertraline hydrochloride] registered an AC50 cell viability of 20.9 µM. Further, the efficacy with HCT116 [2] was -98.8%.
In turn, `O=C(O)c1ccc2c(c1)nc(Nc1cccc(Cl)c1)c1ccncc12` [Silmitasertib] yielded an AC50 cell viability in the experiment with HCT116 [1] of 5.9 µM. The efficacy with HCT116 [2] was -87.1%.
The matching figures for `CN1CCN(c2ncc(-c3cc(Cl)cc(Cl)c3Cl)c(N)n2)CC1` [Sipatrigine]: 18.6 µM and -74.6%.
The matching figures for `COCCNCc1ccc(-c2cc3nccc(Oc4ccc(NC(=O)C5(C(=O)Nc6ccc(F)cc6)CC5)cc4F)c3s2)nc1` [Sitravatinib]: 6.61 µM and -104%.
`Cc1c(C(=O)Nc2ccc(N3C[C@@H](C)O[C@@H](C)C3)nc2)cccc1-c1ccc(OC(F)(F)F)cc1` [Sonidegib] registered an AC50 cell viability in the experiment on HCT116 [1] of 20.9 µM. Also, in the experiment on HCT116 [2], the efficacy was -74.9%.
The matching figures for `CNC(=O)c1cc(Oc2ccc(NC(=O)Nc3ccc(Cl)c(C(F)(F)F)c3)cc2)ccn1` [Sorafenib]: 9.34 µM and -95%.
With `CN1CCN(CC1)C2=NC3=C(C=CC=C3)C(=N2)C/4=C(/C(=O)NC4=O)C5=C[NH]C6=C5C=CC=C6` [Sotrastaurin], the AC50 cell viability with HCT116 [1] was determined as 23.5 µM. Moreover, in the experiment with HCT116 [2], the efficacy was -83.5%.
Take `Fc1ccc(CNc2ncnc3ccc(F)cc23)cc1` [Spautin-1]: the AC50 cell viability in the experiment on HCT116 [1] is 1.48 µM. In addition, in the experiment with HCT116 [2], the efficacy was -34.2%.
Consider `C=CC(=O)Nc1cccc(Nc2nc(Nc3ccc(OCCOC)cc3)ncc2F)c1` [Spebrutinib (AVL-292)], for which the AC50 cell viability with HCT116 [1] was 14.8 µM. In the experiment on HCT116 [2], the efficacy was -107%.
In the experiment on HCT116 [1], `NCCCCNCCCN` [Spermidine] had an AC50 cell viability of 23.5 µM. Further, the efficacy in the experiment with HCT116 [2] is -78.6%.
Take `CO[C@@H]1C(N(C)C(=O)c2ccccc2)C[C@H]2O[C@]1(C)n1c3ccccc3c3c4c(c5c6ccccc6n2c5c31)C(=O)NC4=O` (stereo partly drawn) [Stauprimide]: the AC50 cell viability in the experiment with HCT116 [1] worked out at 1.66 µM. The efficacy in the experiment with HCT116 [2] was -50%.
As for `CN[C@@H]1C[C@H]2O[C@@](C)([C@@H]1OC)n1c3ccccc3c3c4c(c5c6ccccc6n2c5c31)C(=O)NC4` [Staurosporine], the AC50 cell viability in the experiment on HCT116 [1] stood at 0.0468 µM. Also, in the experiment with HCT116 [2], the efficacy was -89.4%.
Regarding `CC(C)n1cnc2c(NCCc3ccc(O)cc3)nc(-c3csc4ccccc34)nc21` [StemRegenin 1], in the experiment with HCT116 [1], the AC50 cell viability was found to be 18.6 µM. Also, the efficacy in the experiment on HCT116 [2] was -91.3%.
Turning to `C[C@@H]1O[C@@H](O[C@H]2C[C@@H](O)[C@]3(CO)[C@H]4[C@H](O)C[C@]5(C)[C@H](CC[C@]5(O)[C@@H]4CC[C@]3(O)C2)C/6=C/C(=O)OC6)[C@H](O)[C@H](O)[C@H]1O` [Strophantine octahydrate], the AC50 cell viability with HCT116 [1] was determined as 0.0263 µM. The efficacy in the experiment with HCT116 [2] is -75.8%.
`CONC(=O)Nc1ccc(-c2sc3c(c2CN(C)Cc2ccccc2)c(=O)n(-c2ccccc2)c(=O)n3Cc2c(F)cccc2F)cc1` [Sufugolix] showed an AC50 cell viability in the experiment with HCT116 [1] of 16.6 µM. Further, the efficacy with HCT116 [2] was -35.8%.
On to `Cc1cc2cc(Oc3ccnc(Nc4cccc(C[S+](=O)([O-])NCCN(C)C)c4)n3)ccc2[nH]1` [Sulfatinib], for which the AC50 cell viability in the experiment on HCT116 [1] was 11.8 µM. Besides, in the experiment on HCT116 [2], the efficacy is -101%.
As for `CCN(CC)CCNC(=O)c1c(C)[nH]c(/C=C2\C(=O)Nc3ccc(F)cc32)c1C` [Sunitinib malate], in the experiment on HCT116 [1], the AC50 cell viability is 3.32 µM. Moreover, the efficacy with HCT116 [2] was -98.2%.
In the case of `Fc1ccc(-c2nc(-c3ccccc3F)[nH]c2-c2ccncc2)cc1` [TA02], the AC50 cell viability with HCT116 [1] was found to be 16.6 µM. For the same compound, the efficacy with HCT116 [2] was -48.4%.
In the experiment on HCT116 [1], `COc1cc(N2CCC(N3CCN(C)CC3)CC2)ccc1Nc1ncc(Cl)c(Nc2ccccc2[S+](=O)([O-])C(C)C)n1` [TAE-684] gave an AC50 cell viability of 1.18 µM. In addition, the efficacy with HCT116 [2] was -110%.
`CC(C)(O)CC(=O)NCCn1ccc2ncnc(Nc3ccc(Oc4cccc(C(F)(F)F)c4)c(Cl)c3)c21` [TAK-285] showed an AC50 cell viability in the experiment with HCT116 [1] of 16.6 µM. Moreover, the efficacy in the experiment with HCT116 [2] was -101%.
For the compound `Cc1cc(C(=O)Nc2cc(Oc3ccc4nc(NC(=O)C5CC5)cn4n3)ccc2C)n(C)n1` [TAK-593], the AC50 cell viability in the experiment with HCT116 [1] was 14.8 µM. Moreover, the efficacy with HCT116 [2] is -56.7%.
With `CCc1nc(-c2cccc(C)c2)c(-c2ccnc(NC(=O)c3ccccc3)c2)s1` [TAK-715], the AC50 cell viability with HCT116 [1] is 26.3 µM. Further, in the experiment on HCT116 [2], the efficacy was -72.7%.
For the compound `CC[S+](=O)([O-])c1cccc(-c2cc(C(=O)NC3CCN(C)CC3)c(C)c3[nH]c4ncc(C)cc4c23)c1` [TAK-901], in the experiment with HCT116 [1], the AC50 cell viability was 0.417 µM. The efficacy in the experiment on HCT116 [2] is -76.3%.
The matching figures for `CC1=N[NH]C=C1C2=CC\3=C(S2)C(=O)NC(=N3)\[C@@H]4CC5CCN4CC5` [TAK-931]: 2.63 µM and -65.2%.
The matching figures for `COc1cc(C(=O)NC2CCN(C)CC2)c(F)cc1Nc1ncc2c(n1)N(C1CCCC1)CC(F)(F)C(=O)N2C` [TAK-960]: 1.32 µM and -120%.
In the experiment with HCT116 [1], `CCc1cc(C(N)=O)ccc1-n1nc(C(C)C)c2c(-n3cnc(-c4cnn(C)c4)c3)ccnc21` [TAS-116] gave an AC50 cell viability of 1.05 µM. The efficacy with HCT116 [2] was -65.3%.
As for `Oc1ccc(-c2ccc(-c3cc(Nc4cccc(CNC5CC5)c4)[nH]n3)cc2)c(O)c1` [TCS-2312], the AC50 cell viability in the experiment with HCT116 [1] came out at 3.32 µM. Moreover, in the experiment on HCT116 [2], the efficacy was -77.1%.
Regarding `N#Cc1c(NC(=O)c2cccc3ccccc23)sc2c1CCCC2` [TCS-JNK-5a], the AC50 cell viability with HCT116 [1] came out at 0.417 µM. In addition, in the experiment on HCT116 [2], the efficacy is -61.6%.
The compound `CCN1/C(=C/C(C)=O)Sc2ccc(OC)cc21` [TG-003] had an AC50 cell viability with HCT116 [1] of 14.8 µM. The efficacy with HCT116 [2] was -41.4%.
In turn, `Cc1cnc(Nc2ccc(CN3CCOCC3)cc2)nc1Nc1cccc([S+](=O)([O-])NC(C)(C)C)c1` [TG-46] returned an AC50 cell viability in the experiment with HCT116 [1] of 2.63 µM. The efficacy in the experiment with HCT116 [2] was -97.9%.
The matching figures for `Cc1cnc(Nc2cccc(CN3CCOCC3)c2)nc1Nc1cccc([S+](=O)([O-])NC(C)(C)C)c1` [TG-89]: 1.66 µM and -35.5%.
In the experiment on HCT116 [1], `CC(NC1=CC=CC=C1)C\2=C\C(=C/N3C(=O)\C=C(/N=C23)N4CCOCC4)C` (stereo not drawn) [TGX-221] showed an AC50 cell viability of 18.6 µM. Moreover, in the experiment with HCT116 [2], the efficacy was -44.2%.
Compound `CN(C)C/C=C/C(=O)Nc1ccc(C(=O)Nc2cccc(Nc3ncc(Cl)c(-c4c[nH]c5ccccc45)n3)c2)cc1` [THZ1] registered an AC50 cell viability with HCT116 [1] of 0.0661 µM. The efficacy with HCT116 [2] is -67.4%.
In turn, `CN(C)C/C=C/C(=O)Nc1ccc(C(=O)N2CCC[C@@H](Nc3ncc(Cl)c(-c4c[nH]c5ccccc45)n3)C2)cc1` [THZ531] showed an AC50 cell viability in the experiment on HCT116 [1] of 0.132 µM. Besides, in the experiment with HCT116 [2], the efficacy is -74.2%.
The matching figures for `CN(C)C/C=C/C(=O)Nc1cccc(C(=O)Nc2cccc(Nc3ncc(Cl)c(-c4c[nH]c5ccccc45)n3)c2)c1` [THZ-2]: 0.0934 µM and -78.8%.
The compound `CC1=CC=CC=C1CN2C(=O)C/3=C(/CCN(CC4=CC=CC=C4)C3)N\5CC\N=C25` [TIC-10] gave an AC50 cell viability with HCT116 [1] of 2.95 µM. Further, the efficacy with HCT116 [2] was -62.1%.
For the compound `CN1CCN(Cc2ccc(Nc3ncc(Cl)/c(=N\c4ccccc4[S+](=O)([O-])N(C)C)[nH]3)cc2)CC1` [TP-0903], the AC50 cell viability in the experiment with HCT116 [1] was 0.027 µM. The efficacy with HCT116 [2] was -65.8%.
Take `CC(C)(O)[C@H]1CC[C@H](Nc2ccc3ncc(-c4cccc(C(F)(F)F)c4)n3n2)CC1` [TP-3654]: in the experiment on HCT116 [1], the AC50 cell viability is 1.66 µM. For the same compound, the efficacy in the experiment on HCT116 [2] was -43.7%.
The matching figures for `NC(=O)Nc1sc(-c2ccc(F)cc2)cc1C(N)=O` [TPCA-1]: 14.8 µM and -74.4%.
The matching figures for `Cc1ccc([S+](=O)([O-])N[C@@H](Cc2ccccc2)C(=O)CCl)cc1` [TPCK]: 18.6 µM and -77.8%.
The matching figures for `CCC(=O)N1CCOc2c(cc(-c3cc(OC)cc(OC)c3)cc2C(=O)N[C@H]2CCCN(C)C2)C1` [TPOP-146]: 20.9 µM and -79.1%.
On to `C[C@H]1CNC(=O)c2cnn3ccc(nc23)N[C@H](C)c2cc(F)ccc2O1` [TPX-0005], for which, in the experiment on HCT116 [1], the AC50 cell viability is 2.35 µM. For the same compound, the efficacy in the experiment on HCT116 [2] was -87.5%.
As to `Clc1ccccc1C(c1ccccc1)(c1ccccc1)n1cccn1` [TRAM-34], in the experiment on HCT116 [1], the AC50 cell viability was determined as 18.6 µM. Further, the efficacy in the experiment on HCT116 [2] is -41.5%.
The matching figures for `CC(C)c1ccccc1Cc1cc(C(=O)Nc2ccc([S+](=O)([O-])c3ccccc3C(C)(C)C)cc2)c(O)c(O)c1O` [TW-37]: 20.9 µM and -90.9%.
As for `Nc1cccc(-c2cc3c(Oc4cccc(O)c4)ncnc3[nH]2)c1` [TWS-119], the AC50 cell viability with HCT116 [1] worked out at 11.8 µM. In addition, the efficacy in the experiment with HCT116 [2] was -90.2%.
The matching figures for `CC(=O)Nc1ccc(C(=O)Nc2ccccc2N)cc1` [Tacedinaline]: 5.9 µM and -69.7%.
In turn, `CCC(CC)C(c1ccc(Nc2nc3ccccc3s2)cc1)n1cncn1` (stereo not drawn) [Talarozole (R enantiomer)] yielded an AC50 cell viability in the experiment with HCT116 [1] of 20.9 µM. The efficacy with HCT116 [2] was -96.4%.
The matching figures for `CC/C(=C(\c1ccccc1)c1ccc(OCCN(C)C)cc1)c1ccccc1` [Tamoxifen]: 15.2 µM and -87.8%.
The compound `COc1cc2c(N3CCN(C(=O)Nc4ccc(OC(C)C)cc4)CC3)ncnc2cc1OCCCN1CCCCC1` [Tandutinib] yielded an AC50 cell viability in the experiment on HCT116 [1] of 18.6 µM. The efficacy in the experiment on HCT116 [2] was -76%.
